Common to all, as to test: two-electrode voltage clamp, Xenopus oocytes
Holding throughout (format): cell-based
On the technique in general: Two-electrode voltage clamp holds a large cell at a set potential and records current.

Experiment [1] has as its target T1, HdP2X (Hypsibius dujardini, UniProt B8RGS2).
T1 construct: full-length, 480 residues, cDNA clone in pSPORT1; cRNA in Xenopus oocytes; P2X receptors are trimers
T1 sequence (B8RGS2 1-480): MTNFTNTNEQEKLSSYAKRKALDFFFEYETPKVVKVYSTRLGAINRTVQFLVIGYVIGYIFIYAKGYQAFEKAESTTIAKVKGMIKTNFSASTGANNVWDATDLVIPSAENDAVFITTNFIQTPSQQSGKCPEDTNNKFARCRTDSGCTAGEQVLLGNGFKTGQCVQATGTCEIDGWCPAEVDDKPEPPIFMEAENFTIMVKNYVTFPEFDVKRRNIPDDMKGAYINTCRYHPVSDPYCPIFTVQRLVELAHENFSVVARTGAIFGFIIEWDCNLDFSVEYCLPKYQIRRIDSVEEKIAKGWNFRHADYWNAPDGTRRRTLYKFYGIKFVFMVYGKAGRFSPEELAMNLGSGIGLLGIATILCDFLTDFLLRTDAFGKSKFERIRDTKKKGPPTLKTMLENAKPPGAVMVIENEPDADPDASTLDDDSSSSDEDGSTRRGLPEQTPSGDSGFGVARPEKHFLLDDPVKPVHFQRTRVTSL

Experiment [2] addresses T1, HdP2X. This is another data set of the same source.
For experiment [3], the target named is T1, HdP2X. To be noted: agonist; -60 mV; ND96 with Ba2+ for Ca2+, pH 7.5.

These results are taken from paper PMC2633282, “A P2X receptor from the tardigrade species Hypsibius dujardini with fast kinetics and sensitivity to zinc and copper” (BMC Evolutionary Biology, 2009).

Molecule `Nc1ncnc2c1ncn2[C@@H]1O[C@H](COP(=O)(O)OP(=O)(O)OP(=O)(O)O)[C@@H](O)[C@H]1O` [ATP] yielded a 50% effective concentration (EC50) on HdP2X [1] of 44.5 µM.
On the same count and under the same terms, the same measure for `Nc1ncnc2c1ncn2[C@@H]1O[C@H](COP(=O)(O)OP(=O)(O)OP(=O)(O)O)[C@@H](OC(=O)c2ccc(C(=O)c3ccccc3)cc2)[C@H]1O` [Bz-ATP, 2',3'-O-4-Benzoylbenzoyl ATP]: 12.2 µM.
On to `Cc1nc(N=Nc2ccc(S(=O)(=O)O)cc2S(=O)(=O)O)c(COP(=O)(O)O)c(C=O)c1O` [PPADS, pyridoxal-phosphate-6-azophenyl-2',4'-disulfonic acid], for which, on HdP2X [2], the half-maximal inhibitory concentration (IC50) came out at 15 µM.
On the same count and under the same terms, the same measure for `Cc1ccc(C(=O)Nc2ccc(S(=O)(=O)O)c3cc(S(=O)(=O)O)cc(S(=O)(=O)O)c23)cc1NC(=O)c1cccc(NC(=O)Nc2cccc(C(=O)Nc3cc(C(=O)Nc4ccc(S(=O)(=O)O)c5cc(S(=O)(=O)O)cc(S(=O)(=O)O)c45)ccc3C)c2)c1` [suramin]: 22.6 µM.
With `Nc1ncnc2c1ncn2[C@@H]1O[C@H](COP(=O)(O)CP(=O)(O)OP(=O)(O)O)[C@@H](O)[C@H]1O` [αβ-methylene ATP, α,β-methylene-adenosine 5'-triphosphate], on HdP2X [3], the “% of 100 μM ATP response at 100 μM” value is reported as under 50%.

A word on the EC50: it is the midpoint of the concentration-response curve. What is called IC50 is the concentration that inhibits the measured activity by half. Lower therefore signals greater potency in that assay.
